Consider 8 molecules from patent US11254986B2, “Gene signature for immune therapies in cancer” (ALMAC DIAGNOSTICS LIMITED, priority 2015, dated 2022).

For data set [1], the system named is CXCL10 and CCL5 chemokine production in MDA-MB-436 EV cells. Kind of data set: Chemokine expression after small molecule inhibitors of ATM, ATR and DNAPK. In kind it is cell-based. The note with it: DDRD positive cells (MDA-MB-436 EV), compared to the DMSO control, FIG. 16. As for the experimental part: (§1) The product of Reverse Transcription was diluted 1:10 in Nuclease Free Water (NFW). Each 10 μl PCR reaction, consisted of 0.5 μl of 10 μM Forward primer, 0.5 μl of 10 μM Reverse primer, 5 μl of 2× LightCycler® 480 SYBR Green I Master mix (Roche), 1.5 μl NFW and 2.5 μl diluted Reverse Transcription product. These 10 μl reactions were pipetted into wells of a LightCycler® 480 multiwell 96 plate (Roche), the plate was then sealed using clear adhesive film (Roche). The plate was placed into the LightCycler® 480 (Roche) and run with the following protocol. (95° C. for 10 mins, 45 cycles of; 95° C. for 15 secs, 55° C. for 30 secs and 72° C. for 30 secs, finishing with a melt curve for confirmation of primer specificity. All qPCR data was analysed using the LightCycler® 480 software provided by Roche. For analysis, the Cp value from a technical duplicate was calculated and the relative amount of a gene was calculated Cp value to an in-run standard curve. Each mean value was then normalised to the mean concentration of the housekeeping gene PUM1 within the corresponding sample, by dividing the concentration of the target gene by the concentration of the house keeping gene. Relative expression refers to the gene expression levels that have been normalised to the housekeeping gene and made relative to the associated control samples. From these normalized values, the fold changes for each gene were calculated and the average of three individual fold changes were derived from three independent experimental triplicates. The unpaired, two-tailed students T-test available on GraphPad Prism 5.0 software was used to detect statistical significance.
(§2) For analysis of effects of ATM, ATR and DNAPK on cytokine expression, cells were seeded in six well plates at ˜60% confluency. Following incubation overnight, small molecule inhibitors of ATM (Ku60019, Selleck Chem) at a dose of 1 μm, ATR (ETP46464, Selleck Chem) at a dose of 5 μm and DNAPK (Nu7441, Selleck Chem) at a dose of 5 μm were added. At 24 hours, RNA and protein samples were obtained for analysis. For analysis of the effects of DNA damaging agents and paclitaxel on cytokine expression, cells were seeded in six well plates at ˜60% confluency. Following incubation overnight, IC50 doses of Cisplatin and Paclitaxel (obtained from fresh Pharmacy stock) and Hydroxyurea (Sigma Aldrich) were added for 24 hours to 48 hours. At the appropriate timepoint, RNA and protein samples were obtained for analysis.

Data set [2] deals with HCC1937 parental and HCC1937-BR cells. The note with it: HCC1937 BRCA1 mutant cell-line relative to BRCA1 corrected cell-line (HCC1937-BR); FIG. 8C.
Procedure: The cell-lines were routinely maintained in RPMI-1640 medium supplemented with 50 U penicillin/ml, 50 μg streptomycin/ml, 2 mM glutamine, 1 mM Sodium Pyruvate and 20% (v/v) fetal bovine serum (FBS). The HCC1937-EV and HCC937-BR cell-lines also required 0.2 ml/mg geneticin. Cell-lines were cultured at 37° C. with a humidified atmosphere of 5% CO2.
Twenty-four hours following seeding the cells were exposed to medium containing increasing doses of drug. Cell medium was replenished every 4-5 days. After 12-14 days the cells were fixed in methanol, stained with crystal violet and counted. The percentage survival of control for a given dose was calculated as the plating efficiencies for that dose divided by the plating efficiencies of vehicle-treated cells. Survival curves and half maximal inhibitory concentration (IC50) values were calculated using GraphPad Prism.
Data set [3] relates to CXCL10 and CCL5 expression. Kind of data set: qRT-PCR of chemokine expression after DNA damaging agents, paclitaxel or nocodazole. In kind it is cell-based. As for the experimental part:
Reverse transcription was performed using the First Strand cDNA synthesis kit (Roche). 500 ng of RNA was reverse transcribed according to manufacturer's instructions. Exon-spanning qPCR primers were designed using Roche Universal Probe Library Assay Design Centre and were used at a concentration of 0.5 μM. The following primer sequences were used:
To preform absolute quantification from qPCR, we used a standard curve method. The efficiency of each primer set was derived from the standard curve using the following equation: E=10^(−1/slope)
as §1
For analysis of effects of ATM, ATR and DNAPK on cytokine expression, cells were seeded in six well plates at ˜60% confluency. Following incubation overnight, small molecule inhibitors of ATM (Ku60019, Selleck Chem) at a dose of 1 μm, ATR (ETP46464, Selleck Chem) at a dose of 5 μm and DNAPK (Nu7441, Selleck Chem) at a dose of 5 μm were added. At 24 hours, RNA and protein samples were obtained for analysis. For analysis of the effects of DNA damaging agents and paclitaxel on cytokine expression, cells were seeded in six well plates at ˜60% confluency. […]
In general terms: In qPCR the cycle at which signal appears reflects the starting amount.

The test system of data set [4] is HeLa, HCC1937 EV and MDA-MB-436 EV cells. Kind of data set: Cell cycle analysis (propidium iodide, flow cytometry). In kind it is cell-based. The note with it: anti-mitotic agent treatment; FIG. 15. As for the experimental part: as §2
Cells were trypsinised and fixed in 70% ethanol, incubated with RNase A and propidium iodide (P1) and analysed using a BD FACSCalibur™ (BD Biosciences, CA, USA). Data was analysed using Flow Jo software to perform cell cycle analysis.
In general terms: Flow cytometry measures light scatter and fluorescence of single cells or particles in a stream.

The subject of data set [5] is cytosolic DNA in HeLa cells. Nature of the data set: PicoGreen fluorescent staining of double-stranded DNA, confocal microscopy. In kind it is cell-based. The note with it: IC50 doses, FIG. 19C. The text has this:
We probed cytosolic fractions of DDRD positive cells MDA-436-EV and +BRCA1, and HCC1937-EV and +BRCA1 cells for the presence of Histone H3, and found Histone H3 protein expression was increased in the repair deficient lines (EV) (FIG. 19A, top panel of blots). […] PicoGreen fluorescent staining was used to detect double-stranded DNA (ds-DNA). […] This increase in cytosolic DNA was however not observed in response to treatment with Paclitaxel (HeLa+Paclitaxel IC50) (FIG. 19C).

A further data set concerns PDL1. Nature of the data set: PDL1 expression in RKO cells after Interferon-γ, qPCR and western blot. In kind it is cell-based. The note with it: for PDL1 gene expression levels (fold change): RKO Par, RKO Fanc C and RKO Fanc G cells, FIG. 27B. As for the experimental part: as §1, with “Relative expression refers to the gene expression levels that have been normalised to the housekeeping gene and made relative to the associated control samples.” left out, “The unpaired, two-tailed students T-test available on GraphPad Prism 5.0 software was used to detect statistical significance.” left out
Adherent cells formed whole cell lysates suspended in RIPA buffer containing phosphatase and protease inhibitors (Roche Inhibitor cocktails, Germany). […] Protein was quantified using the BCA Assay (Pierce, Rockford, Ill., USA) according to manufacturer's instructions using a plate reader. […] Results were then visualized and recorded using Luminata Crescendo Western HRP substrate (Millipore, UK) and an alpha imager.
The cytotoxic effects of lymphocytes on cancer cells was measured using LIVE/DEAD® Cell-Mediated Cytotoxicity Kit (Life technologies, Paisley, UK.) RKO parental and Fanc G cells were trypsinised, counted and stained with green-fluorescent membrane stain DiOC18 in PBS at a concentration of 2 μl of stain per ml. […]

Data set [6] deals with RKO Parental and RKO FANCG-/- cells. Kind of data set: Lymphocyte (PBMC) mediated cytotoxicity, LIVE/DEAD Cell-Mediated Cytotoxicity Kit. The format is cell-based. The note with it: pre-treatment of cancer cells, PBMC ratio 5:1, p-value<0.05, FIG. 27A. The procedure: The cytotoxic effects of lymphocytes on cancer cells was measured using LIVE/DEAD® Cell-Mediated Cytotoxicity Kit (Life technologies, Paisley, UK.) RKO parental and Fanc G cells were trypsinised, counted and stained with green-fluorescent membrane stain DiOC18 in PBS at a concentration of 2 μl of stain per ml. Cells were incubated with the stain for 20 minutes at 37° C. before being seeded into 12 well plates at a density of 1×10^5 cells per well and left to adhere overnight. The next day PMBCs were counted and added to RKO cell cultures at the ratios indicated. For 1:1 ratio 1×10^5 PBMCs were added, for 5:1 ratio 5×10^5 PBMCs were added. The co-cultures were incubated for 4 hours before cells were collected for analysis by flow cytometry. A BD FACSCalibur™ (BD Biosciences, CA, USA) was used for the analysis of samples and Flow Jo software was used for data analysis. Cells were treated with interferon-γ at a concentration of 20 ng/ml for 16 hours.

With `CC(C)(C#N)c1ccc(N2C(=O)OCc3cnc4ccc(-c5cnc6ccccc6c5)cc4c32)cc1` [ETP-46464], the “CXCL10 and CCL5 chemokine production / expression levels” value in data set [1] is given as “No significant decreases”.
As to `O=C(c1cc(Cc2n[nH]c(=O)c3ccccc23)ccc1F)N1CCCNCC1` [KU0058948], in data set [2], the “sensitivity to PARP-1 inhibitor (clonogenic survival)” value is listed as “more sensitive”.
Regarding `C[C@@H]1CN(CC(=O)Nc2ccc3c(c2)Cc2cccc(-c4cc(=O)cc(N5CCOCC5)o4)c2S3)C[C@H](C)O1` [Ku60019], the “CXCL10 and CCL5 chemokine production / expression levels” value in data set [1] is on record as “No significant decreases”.
As to `COC(=O)Nc1nc2ccc(C(=O)c3cccs3)cc2[nH]1` [Nocodazole], in data set [3] (anti-mitotic agent treatment, FIG. 15A), the “mRNA expression of CXCL10” value was “reduced mRNA expression of CXCL10”. Also, the cell cycle arrest result in data set [4] is on record as “arrest in the M phase”.
As to `O=c1cc(N2CCOCC2)oc2c(-c3cccc4c3sc3ccccc34)cccc12` [Nu7440], the entries for the “CXCL10 and CCL5 chemokine production / expression levels” value in data set [1] and in data set [1] (listed as DNAPKi) were “No significant decreases” and “significantly increased”, respectively.
`CC(=O)O[C@H]1C(=O)[C@@]2(C)[C@H]([C@H](OC(=O)c3ccccc3)[C@]3(O)C[C@H](OC(=O)[C@H](O)[C@@H](NC(=O)c4ccccc4)c4ccccc4)C(C)=C1C3(C)C)[C@]1(OC(C)=O)CO[C@@H]1C[C@@H]2O` [Paclitaxel]: the “cytosolic DNA (PicoGreen, confocal microscopy)” value in data set [5] is “not observed”. The “CXCL10 and CCL5 relative expression” value in data set [3] (HeLa, HCC1937 EV and MDA-MB-436 EV cells, IC-50 doses, compared to DMSO control, FIG. 14) is “not significantly increased”.
With “Interferon-γ: Interferon-γ, cells treated at 20 ng/ml for 16 hours”, the “PDL1 protein level (western blotting)” value with PDL1 (RKO Par and RKO Fanc G cells, pre-treatment, FIG. 27C) is listed as “enhanced PDL1 levels”. Moreover, the “PDL1 gene expression levels (fold change)” value in the data set on PDL1 is reported as “significantly increases PDL1 gene expression levels”; in the data set on PDL1 (listed as IFN-γ), “drives PDL-1 expression in DDRD+”.

B1: Interferon-γ: Interferon-γ, cells treated at 20 ng/ml for 16 hours (protein, UniProt P01579 24-161, looked up)
Interferon gamma: QDPYVKEAENLKKYFNAGHSDVADNGTLFLGILKNWKEESDRKIMQSQIVSFYFKLFKNFKDDQSIQKSVETIKEDMNVKFFNSNKKKRDDFEKLTNYSVTDLNVQRKAIHELIQVMAELSPAAKTGKRKRSQMLFRG
Regarding B1, the “lymphocyte mediated cytotoxicity, differential between RKO FANCG-/- and RKO Parental cells” value in data set [6] is recorded as “extends the differential cytotoxicity”; in data set [6] (listed as IFN-γ), “protects against PBMC mediated cytotoxicity”.
